Results on 4 molecules are retold here after patent publication US7074804B2, “CCI-779 Isomer C” (Wyeth, priority 2003, dated 2006).

The test system of one data set is Aspergillus niger. Briefly: Antifungal activity, microtiter broth dilution MIC. Type of data set: cell-based. To be noted: RPMI 1640, 35° C., 24–48 h. How it is done: (§1) Antifungal activity for CCI-779 Isomer C was established by evaluating it against several strains of fungi. Briefly the following procedure was used to evaluate such activity. A 96 well microtiter plate was filled (50 μL/well) with RPMI 1640. The compounds to be evaluated were placed in appropriate wells and serial diluted in successive wells to provide several dilutions. The concentration ranged from […]. An adjusted inoculum of fungi (50 μL) was added to each well and plates were incubated at 35° C. for 24–48 h.
(In general: Dilution methods test growth across graded concentrations, often in twofold steps.)

In the next data set the test system is Candida rugosa. Description: Antifungal activity, microtiter broth dilution MIC. Type of data set: cell-based. To be noted: Candida rugosa strain 94-10, RPMI 1640, 35° C., 24–48 h. How it is done: as §1
Another data set concerns Aspergillus fumigatus. Description: Antifungal activity, microtiter broth dilution MIC. Type of data set: cell-based. To be noted: Aspergillus fumigatus strain ATCC 26933, RPMI 1640, 35° C., 24–48 h. How it is done: as §1
The next data set has as its system Candida albicans. Description: Antifungal activity, microtiter broth dilution MIC. Type of data set: cell-based. The conditions noted are these: RPMI 1640, 35° C., 24–48 h. How it is done: as §1
In a further data set the test system is Candida pseudotropicalis. Description: Antifungal activity, microtiter broth dilution MIC. Type of data set: cell-based. To be noted: Candida pseudotropicalis strain ATCC 28838, RPMI 1640, 35° C., 24–48 h. How it is done: as §1
A further data set has as its system Candida parapsilosis. Description: Antifungal activity, microtiter broth dilution MIC. Type of data set: cell-based. The conditions noted are these: RPMI 1640, 35° C., 24–48 h. How it is done:
as §1

A further data set concerns Candida krussii. Description: Antifungal activity, microtiter broth dilution MIC. Type of data set: cell-based. The conditions noted are these: Candida krussii strain 94-2, RPMI 1640, 35° C., 24–48 h. How it is done: as §1
Another data set concerns Candida tropicalis. Briefly: Antifungal activity, microtiter broth dilution MIC. Type of data set: cell-based. The conditions noted are these: RPMI 1640, 35° C., 24–48 h. How it is done:
as §1

Another data set concerns Candida lusitaniae. Briefly: Antifungal activity, microtiter broth dilution MIC. Type of data set: cell-based. The conditions noted are these: Candida lusitaniae strain 94-3, RPMI 1640, 35° C., 24–48 h. How it is done:
as §1

The next data set concerns human tumor xenografts. To be noted: nude mice, diverse histological types; cited from earlier work.
The subject of data set [1] is histologically diverse tumor cells. The conditions noted are these: cited from earlier work.
A short description of data set [2]: Stability of CCI-779 Isomer C (solid form, aqueous suspension, formulation). Type of data set: physicochemical.
[3] abbreviates: Candida albicans strain ATCC 90028.
[4] abbreviates: Candida parapsilosis strain 94-8.
[5] abbreviates: Candida parapsilosis strain 94-9.
[6] abbreviates: Candida parapsilosis strain ATCC 90018.
The mark [7] stands for this setting: Candida tropicalis strain 94-13.
Setting [8] is: Candida tropicalis strain 94-14.

Molecules are shown by their SMILES. In brackets after ≈: the same amount, converted by molar mass. Like-named read-outs stand apart in the source and are kept apart here.

What is called MIC is the smallest concentration in the dilution series that meets the test's criterion for growth inhibition. On to `C[C@@H]1[C@H](O)[C@@H](C)/C=C/C=C/CC/C=C/C=C/C=C/C=C/C(O[C@H]2O[C@H](C)[C@@H](O)[C@H](N)[C@@H]2O)CC2O[C@](O)(CC(O)C(O)CCC(O)CC(O)CC(O)CC(=O)O[C@H]1C)CC(O)C2C(=O)O` (stereo partly drawn) [Nystatin], for which the minimum inhibitory concentration (MIC) against Aspergillus niger (Aspergillus niger strain S399) is 2 µg/mL (≈ 2.16 µM); against Aspergillus niger (Aspergillus niger strain S430) it was 1 µg/mL (≈ 1.08 µM); in the data set on Candida rugosa it was 1 µg/mL (≈ 1.08 µM); with Aspergillus fumigatus it was 2 µg/mL (≈ 2.16 µM); in the data set on Candida albicans (Candida albicans strain 1063) it was 1 µg/mL (≈ 1.08 µM); in the data set on Candida albicans (Candida albicans strain 1117) it was 1 µg/mL (≈ 1.08 µM). In addition, the MIC stood at 1 µg/mL (≈ 1.08 µM) with Candida albicans (setting [3]); 1 µg/mL (≈ 1.08 µM) against Candida pseudotropicalis; 2 µg/mL (≈ 2.16 µM) with Candida parapsilosis (setting [4]); 1 µg/mL (≈ 1.08 µM) with Candida parapsilosis (setting [5]); 2 µg/mL (≈ 2.16 µM) against Candida parapsilosis (setting [6]); 1 µg/mL (≈ 1.08 µM) against Candida krussii. Further, the MIC in the data set on Candida tropicalis (setting [7]), against Candida tropicalis (setting [8]) and in the data set on Candida lusitaniae was 1 µg/mL (≈ 1.08 µM) throughout.
As for `CO[C@H]1C[C@@H]2CC[C@@H](C)[C@@](O)(O2)C(=O)C(=O)N2CCCC[C@H]2C(=O)O[C@H]([C@H](C)C[C@@H]2CC[C@@H](OC(=O)C(C)(CO)CO)[C@H](OC)C2)CC(=O)[C@H](C)/C=C(\C)[C@@H](O)[C@@H](OC)C(=O)[C@H](C)C[C@H](C)/C=C/C=C/C=C/1C` (single isomer, unassigned) [CCI-779, Rapamycin 42-ester with 3-hydroxy-2-(hydroxymethyl)-2-methylpropionic acid], the “activity against human tumor xenografts” value in the data set with human tumor xenografts is reported as “has activity”. For the same molecule, the “growth of tumor cells in vitro” value in data set [1] (CNS cancer, leukemia (T-cell), breast, prostate, melanoma lines most sensitive) is reported as “inhibit the growth”. The cell cycle effect entry in [1] (in vitro) was “arrested cells in the G1 phase of the cell cycle”.
`CO[C@H]1C[C@@H]2CC[C@@H](C)C(=O)C(O)(O2)C(=O)N2CCCC[C@H]2C(=O)O[C@H]([C@H](C)C[C@@H]2CC[C@@H](OC(=O)C(C)(CO)CO)[C@H](OC)C2)CC(=O)[C@H](C)/C=C(\C)[C@@H](O)[C@@H](OC)C(=O)[C@H](C)C[C@H](C)/C=C/C=C/C=C/1C` (single isomer, unassigned) [CCI-779 Isomer C]: the “stability with citric acid” value in data set [2] (citric acid at a concentration of less than 0.01% w/v in formulation) is “enhanced the stability”. In [2] (formulated in solid form), the “stability under storage conditions” value is recorded as “stable under storage conditions for extended periods of time”. In addition, the stability entry in data set [2] (in an aqueous suspension) was “stable”. The minimal inhibitory concentration (MIC) was 32 µg/mL (≈ 31.1 µM) against Aspergillus niger (Aspergillus niger strain S399); 32 µg/mL (≈ 31.1 µM) in the data set on Aspergillus niger (Aspergillus niger strain S430, read-out: MIC); 16 µg/mL (≈ 15.5 µM) in the data set on Candida rugosa (Diutina rugosa, read-out: MIC); more than 32 µg/mL with Aspergillus fumigatus (ATCC26933, read-out: MIC); 4 µg/mL (≈ 3.88 µM) with Candida albicans (ATCC90028, Candida albicans strain ATCC 90028, read-out: MIC); 4 µg/mL (≈ 3.88 µM) in the data set on Candida albicans (Candida albicans strain 1063, read-out: MIC). The MIC was found to be 4 µg/mL (≈ 3.88 µM) in the data set with Candida albicans (Candida albicans strain 1117); 4 µg/mL (≈ 3.88 µM) in the data set on Candida pseudotropicalis (Kluyveromyces marxianus, ATCC28838, read-out: MIC); 4 µg/mL (≈ 3.88 µM) in the data set with Candida parapsilosis (setting [5]); 4 µg/mL (≈ 3.88 µM) with Candida parapsilosis (Lodderomyces parapsilosis, ATCC90018, Candida parapsilosis strain ATCC 90018, read-out: MIC); 4 µg/mL (≈ 3.88 µM) in the data set on Candida parapsilosis (Lodderomyces parapsilosis, Candida parapsilosis strain 94-8, read-out: MIC); 4 µg/mL (≈ 3.88 µM) in the data set with Candida krussii (read-out: MIC). For the same molecule, the MIC against Candida tropicalis (setting [7]) came out at 4 µg/mL (≈ 3.88 µM); in the data set on Candida tropicalis (Candida tropicalis strain 94-14, read-out: MIC) it was 4 µg/mL (≈ 3.88 µM); in the data set on Candida lusitaniae (Clavispora lusitaniae, read-out: MIC), 8 µg/mL (≈ 7.76 µM).
With `C[C@@H]1[C@H](O)[C@@H](C)/C=C/C=C/C=C/C=C/C=C/C=C/C=C/[C@H](O[C@@H]2O[C@H](C)[C@@H](O)[C@H](N)[C@@H]2O)C[C@@H]2O[C@](O)(C[C@@H](O)C[C@@H](O)[C@H](O)CC[C@@H](O)C[C@@H](O)CC(=O)O[C@H]1C)C[C@H](O)[C@H]2C(=O)O` [Amphotericin B], the MIC against Aspergillus niger (Aspergillus niger strain S399) was 0.50 µg/mL (≈ 0.541 µM); against Aspergillus niger (Aspergillus niger strain S430), 0.25 µg/mL (≈ 0.271 µM); with Candida rugosa, 0.25 µg/mL (≈ 0.271 µM); in the data set with Aspergillus fumigatus it was 0.25 µg/mL (≈ 0.271 µM); with Candida albicans (Candida albicans strain 1063) it was “≦0.06 μg/mL”; in the data set on Candida albicans (Candida albicans strain 1117), 0.12 µg/mL (≈ 0.13 µM). The MIC is 0.12 µg/mL (≈ 0.13 µM) in the data set with Candida albicans (setting [3]); “≦0.06 μg/mL” against Candida pseudotropicalis; “≦0.06 μg/mL” against Candida parapsilosis (setting [4]); 0.12 µg/mL (≈ 0.13 µM) in the data set with Candida parapsilosis (setting [5]); “≦0.06 μg/mL” in the data set with Candida parapsilosis (setting [6]); 0.12 µg/mL (≈ 0.13 µM) in the data set with Candida krussii. Besides, the MIC result against Candida tropicalis (setting [7]), in the data set with Candida tropicalis (setting [8]) and in the data set on Candida lusitaniae was “≦0.06 μg/mL” each time.
